“Also recorded” adds a separate entry of the source.
What was measured:
[1] = system: primary AML blasts; assay: chemotherapy followed by CLL1-CART cells in primary AML xenografts; assay type: in vivo, NSG-S mice; conditions: two weeks after cytarabine 60 mg/kg i.p. daily days 35-39
Protocol: NSG mice that are additionally transgenic for stem cell factor, GM-CSF and IL-3 (NSG-S) were injected with primary AML blasts (3×10^6 via tail vain injection, day 0). After 4-6 weeks, peripheral blood (PB) was collected to confirm engraftment, which was defined as the presence of >1% circulating leukemic cells (live human CD45dim cells). AML xenografts were then treated with cytarabine (Ara-C, 60 mg/kg by intra-peritoneal injection, daily between days 35-39). Peripheral blood counts were monitored and then these xenografts were randomized to receive CLL1 directed CART cells or control untransduced T cells (1×10^5 I.V.) on day 55. Following that, serial retro-orbital bleedings were performed and absolute leukemic blast count was calculated as a measure of disease burden and the xenografts were followed up for survival.

[2] = in vivo proliferation of huCAR19 CAR T cells with RAD001; conditions: NALM6-luc NSG mice, daily oral RAD001, lowest doses (0.003 mg/kg)
Protocol: (§1) NALM6-luc cells were grown and expanded in vitro in RPMI supplemented with 10% heat inactivated fetal bovine serum. The cells were then transferred to a 15 ml conical tube and washed twice with cold sterile PBS. NALM6-luc cells were then counted and resuspended at a concentration of 10×10^6 cells per milliliter of PBS. The cells were placed on ice and immediately (within one hour) implanted in the mice. NALM6-luc cells were injected intravenously via the tail vein in a 100 μl volume, for a total of 1×10^6 cells per mouse.
Mice were administered 5×10^6 CAR T cells 7 days after tumor implantation. Cells were partially thawed in a 37 degree Celsius water bath and then completely thawed by the addition of 1 ml of cold sterile PBS to the tube containing the cells. The thawed cells were transferred to a 15 ml falcon tube and adjusted to a final volume of 10 mls with PBS. The cells were washed twice at 1000 rpm for 10 minutes each time and then counted on a hemocytometer. T cells were then resuspended at a concentration of 50×10^6 CAR T cells per ml of cold PBS and kept on ice until the mice were dosed. […]
Based on these doses, huCAR19 CAR T cells were dosed with and without RAD001 to determine the proliferative ability of these cells. […] Mice were monitored via FACS for T cell expansion.

[3] = system: NALM6-luc tumors; assay: NALM6-luc tumor growth with daily RAD001 dosing; assay type: in vivo, NSG mice; conditions: daily oral RAD001 alone, 0.3, 1, 3, 10 mg/kg
Protocol: The NALM6 human acute lymphoblastic leukemia (ALL) cell line was developed from the peripheral blood of a patient with relapsed ALL. The cells were then tagged with firefly luciferase. These suspension cells grow in RPMI supplemented with 10% heat inactivated fetal bovine serum.
6 week old NSG (NOD.Cg-Prkdc^scidIl2rg^tm1Wjl/SzJ) mice were received from the Jackson Laboratory (stock number 005557).
as §1
(§2) A concentrated micro-emulsion of 50 mg equal to 1 mg RAD001 was formulated and then resuspended in D5W (dextrose 5% in water) at the time of dosing. Mice were orally dosed daily (via oral gavage) with 200 μl of the desired doses of RAD001.

[4] = RAD001 pharmacokinetics in blood of tumor bearing mice; assay type: in vivo, NSG mice
Protocol: as §2
Mice were dosed daily with RAD001 starting 7 days post tumor implantation. Dosing groups were as follows: 0.3 mg/kg, 1 mg/kg, 3 mg/kg, and 10 mg/kg. Mice were bled on days 0 and 14 following the first and last dose of RAD001, at the following time points for PK analysis: 15 minutes, 30 minutes, 1 hour, 2 hours, 4 hours, 8 hours, 12 hours, and 24 hours.

[5] = system: Nalm-6; assay: huCART19 proliferation in co-culture with RAD001; assay type: cell-based, human; conditions: 4 day co-culture with Nalm-6; 0.0032 and 0.016 nM RAD001
Excerpt: A humanized, anti-human CD19 CAR (huCART19) lentiviral transfer vector was used to produce the genomic material packaged into VSVg pseudotyped lentiviral particles. The amino acid and nucleotide sequence of the humanized anti-human CD19 CAR (huCART19) is CAR 1, ID 104875 described in PCT publication, WO2014/153270, filed Mar. 15, 2014, and is designated SEQ ID NOs. 85 and 31 therein.
Lentiviral transfer vector DNA is mixed with the three packaging components VSVg env, gag/pol and rev in combination with lipofectamine reagent to transfect Lenti-X 293T cells. Medium is changed after 24 h and 30 h thereafter, the virus-containing media is collected, filtered and stored at −80° C. CARTs are generated by transduction of fresh or frozen naïve T cells obtained by negative magnetic selection of healthy donor blood or leukopak. […] The percentage of cells transduced (expressing the CARs on the cell surface) and the level of CAR expression (relative fluorescence intensity, Geo Mean) are determined by flow cytometric analysis between days 7 and 9. […]
To evaluate the functionality of CARTs, the T cells are thawed and counted, and viability is assessed by Cellometer. […]
For measuring the proliferation of CARTs, T cells are cultured with target cells at a ratio of 1:1. […] The number of T cells is assessed by flow cytometry using counting beads as reference.

Row | Structure (SMILES) | mean fluorescence intensity (MFI) of CLL1 in leukemic cells (live huCD45dim) [1] | proliferation of huCAR19 CAR T cells in vivo [2] | growth of NALM6-luc tumors [3] | concentration of RAD001 (blood) ([4]; 24 hours after the final dose) | concentration at 24 h ([4]; NSG, mouse, blood, oral, 24 hours after dosing, lowest dose 0.3 mg/kg, day 0 and day 14, read-out: RAD001 concentrations in the blood) | stability in the blood of tumor bearing mice ([4]; daily oral dosing, day 0 and day 14 PK) | proliferation of huCART19 with RAD001 versus without [5]
1 | Nc1ccn([C@@H]2O[C@H](CO)[C@@H](O)[C@@H]2O)c(=O)n1 [cytarabine] | significant increase |  |  |  |  |  | 
2 | CO[C@H]1C[C@@H]2CC[C@@H](C)[C@@](O)(O2)C(=O)C(=O)N2CCCC[C@H]2C(=O)O[C@H]([C@H](C)C[C@@H]2CC[C@@H](OCCO)[C@H](OC)C2)CC(=O)[C@H](C)/C=C(\C)[C@@H](O)[C@@H](OC)C(=O)[C@H](C)C[C@H](C)/C=C/C=C/C=C/1C [RAD001, (1R,9S,12S,15R,16E,18R,19R,21R,23S,24E,26E,28E,30S,32S,35R)-1,18-dihydroxy-12-{(1R)-2-[(1S,3R,4R)-4-(2-hydroxyethoxy)-3-methoxycyclohexyl]-1-methylethyl}-19,30-dimethoxy-15,17,21,23,29,35-hexamethyl-11,36-dioxa-4-aza-tricyclo[30.3.1.04,9]hexatriaconta-16,24,26,28-tetraene-2,3,10,14,20-pentaone] |  | enhanced proliferation; also recorded: enhancement in CAR T cell proliferation | did not have an impact | above 10 nM | > 10 nM | fairly stable | proliferation was higher than observed without the addition of RAD001

Reference: patent US10568947B2, “Treatment of cancer using a CLL-1 chimeric antigen receptor” (Novartis AG, priority 2014, dated 2020)
